Legend:
[1] = test system: G12V KRAS in SW480 cells; assay: KRAS protein expression after ELOVL6i treatment at different concentrations (immunoblot); type: cell-based, human; conditions: FIG. 2G
Method: Whole-cell extracts were prepared using RIPA buffer (Sigma, #R0278) supplemented with protease and phosphatase inhibitor cocktail (Thermo Fisher Scientific, #78442) on ice for 20 minutes. Subsequently, the lysates were centrifuged at 10,000 g for 20 minutes, and the protein concentration was determined using the BCA assay (Thermo Fisher Scientific, #A55864). The proteins were separated on 4-15% precast protein gels (Bio-Rad, #4568084) in 1×-Tris-Glycine-SDS buffer (Bio-Rad, #1610772) at a constant voltage of 100V and transferred onto nitrocellulose membrane (Bio-Rad, #1620115) using 1× Tris-Glycine Buffer (Bio-Rad, 1610734) at 100V for 1 hour. Following transfer, membrane was blocked in 5% skim milk for 1 hour, then incubated at 4° C. with primary antibodies. Detection was performed using horseradish peroxidase (HRP)-conjugated secondary antibodies. Blots were visualized with chemiluminescent substrate (Thermo Fisher Scientific, #34580) using Azure imaging system. Immunoblots were quantified using ImageJ.

[2] = test system: mCherry-G12V KRAS expressing HT29 cells; assay: mCherry-tagged G12V KRAS protein level after ELOVL6i treatment; type: cell-based, human; conditions: FIGS. 11A and 11B
Method: To label intracellular markers, live cells were fixed with 4% paraformaldehyde (Fisher Scientific, #AA47377-9M) for 20 minutes, washed with PBS, permeabilized with 0.2% Triton X-100 (Sigma, X100-100ML) for 10 minutes, blocked with PBS with 2% BSA (flow buffer) for 30 minutes then stained with the antibodies prepared in flow buffer. Cells were incubated with primary antibodies for 1-hour at room temperature. Primary antibodies used were: anti-KRAS (Proteintech, #12063-1-AP), anti-phospho-ERK (Thr202/Tyr204) (Cell Signaling Technology, #4370S), and anti-ERK (Cell Signaling Technology, #4695S). After wash with flow buffer, cells were incubated with secondary antibodies for 30 minutes. […] Stained samples and the isotype control were analyzed immediately by flow cytometers. Data were analyzed using the FlowJo software. MFI was defined as median fluorescence across the cell population.
HT29 and SW480 cells were transduced with mCherry-WT-KRAS (Addgene, #153335) or mCherry-G12V-KRAS (Addgene, #153336) plasmid for stable mCherry-KRAS expression. […] Images were analyzed by Fiji Image J. The mean fluorescence intensity of mCherry-KRAS was normalized to the time zero measurement of each FOV to generate relative mCherry-KRAS expression across the experiment's timespan. […]

[3] = test system: mCherry-G12V KRAS; assay: Live-cell imaging of mCherry-KRAS and plasma membrane co-localization; type: cell-based, human; conditions: 40 μM, FIGS. 2H-2K
Method: HT29 and SW480 cells were transduced with mCherry-WT-KRAS (Addgene, #153335) or mCherry-G12V-KRAS (Addgene, #153336) plasmid for stable mCherry-KRAS expression. Cells were seeded onto 35 mm glass bottom dish (Fisher Scientific, #NC0794151). ELOVL6 inhibitor was added at 40 μM prior to imaging. Cells were stained with CellBrite™ Steady 488 membrane dye (Biotium, #30106 T) for 30 minutes. Live cells were imaged using Nikon W1 dual cam spinning disk confocal with TIRF and a 100× objective. Five random fields of view (FOV) were selected, and an image/FOV was taken every 15 minutes for a duration of 20 hours. Images were analyzed by Fiji Image J. The mean fluorescence intensity of mCherry-KRAS was normalized to the time zero measurement of each FOV to generate relative mCherry-KRAS expression across the experiment's timespan. The Pearson's coefficient plugin JACop from ImageJ was used for quantification co-localization between mCherry-KRAS and cell membrane dye.

[4] = test system: GTP-bound KRAS in G12V KRAS expressing HEK293 cells; assay: RAS activation assay (active-KRAS pull-down) in HEK293 cells; type: cell-based, human; conditions: 40 μM for 3 days, FIG. 3D
Method: (§1) Cells were treated with 40 μM of ELOVL6 inhibitor ELOVL6-IN-2 (MCE, HY-12146) for 3days and collected for protein extraction. RAS activity was assessed utilizing the active Ras pull-down and detection kit (Thermo Fisher Scientific, #16117). In brief, GST-RAF1 RBD and glutathione agarose resin were combined with whole-cell lysates and incubated on a rotator for 1 hour at 4° C. This was followed by three washes and elution with 2× SDS-PAGE loading buffer. The eluted samples were then subjected to western blotting to detect GTP-RAS.

[5] = test system: GTP-bound KRAS in cancer cell lines harboring G12V or G12D KRAS; assay: RAS activation assay (active-KRAS pull-down) in mutant KRAS cancer cell lines; type: cell-based, human; conditions: multiple cancer cell lines harboring G12V or G12D KRAS, 40 μM for 3 days, FIGS. 3E-3G
Method: as §1

[6] = test system: SW403 xenograft; assay: SW403 G12V KRAS mutant xenograft study; type: in vivo
Method: To establish cell-line-derived xenograft models, 5 million cells (SW403 and NCI-H441) suspended in PBS were subcutaneously injected to the right flanks of 8-week-old female athymic nude (nu/nu) mice purchased from the Jackson Laboratory. Once tumor reached approximately 50 mm3 volume, mice were randomized into groups (n=10) and treated with vehicle control (corn oil) or ELOVL6 inhibitor (dissolved in corn oil) dosed at 300 mg/kg. Treatment was administered twice daily by oral gavage. Tumor growth was measured 2-3 times per week using a caliper. Tumors were collected at the indicated timepoint and at the endpoint for analysis. For KRAS downstream signaling analysis, tumors were dissociated into single cells for flow cytometry analysis and protein was extract for western blotting.
Tumor specimens were fixed in 10% formalin for at least 24 hours. Then washed with PBS and stored in 70% ethanol until paraffin embedding. Slides were stained using Dako Autostainer Plus. The following antibodies were used for staining: KRAS (Proteintech, #12063-1-AP), Ki-67 (Abcam, Ab15580), phospho-ERK (Cell Signaling Technology, #4370S), and ERK (Cell Signaling Technology, #4695s). Slides were then incubated with HRP labelled polymer anti-rabbit antibody (Agilent, K4003). All slides were […] through xylene and alcohol, them mounted, and cover slipped. Slides were scanned at 20× using a Nano Zoomer 2.0 HT (Hamamatsu Photonics).

[7] = test system: human cell lines harboring KRAS mutations (colorectal, lung, pancreatic cancers); assay: Cell viability assay (CellTiter-Glo, 7-day ELOVL6i treatment) across a cell line panel; type: cell-based
Method: (§2) The cells were seeded in triplicates in 96-well plates at a density of 5,000-10,000 cells per well and treated with the indicated concentrations of ELOVL6 inhibitor. Assay plates were subjected to daily media exchange with fresh ELOVL6 inhibitor. Following treatment, cell viability was assessed after a period of 1-week treatment using the CellTiter-Glo Luminescent Cell Viability Assay (Promega, #G7571) with luminescence readings taken on a Cytation™ 3 cell imaging multi-mode reader (Fisher Scientific). The background value was indicated by cell medium without cells and was subtracted from the raw data. The fold change in cell viability was determined relative to control cells that received no treatment.

[8] = test system: cellular lipid composition (ELOVL6 fatty acid elongation); assay: Lipidomic analysis (targeted fatty acids and shotgun lipidomics) of ELOVL6i treated cells; type: cell-based; conditions: 40 μM for 1-week
Method: Cells were treated with ELOVL6 inhibitor at 40 μM for 1-week. Cell pellets were stored at −80° C. until sent for lipidomic analysis. Mass spectrometry-based shotgun untargeted lipid analysis and targeted fatty acids analysis were conducted by Lipotype (Dresden, Germany). Lipids were extracted using chloroform and methanol procedure as previously described (38). Samples were analyzed by automated direct infusion and orbitrap mass spectrometry. LipotypeXplorer was used for identification of lipids in the raw mass spectra (39). Alterations in lipid composition were determined based on mol % of total lipid normalized to untreated control samples.

[9] = test system: G12V or G12D KRAS cell lines; assay: Lipid add-back cell viability experiment; type: cell-based; conditions: 200 μM oleic acid or 20 μM stearic acid supplemented medium, FIGS. 5G and 19
Method: as §2
For the lipid-addback experiment, cells were treated with the indicated concentrations of ELOVL6 inhibitor in 200 μM of oleic acid (Sigma, #O1383-1G) or 20 μM of stearic acid (Sigma, #S4751-1G) supplemented medium.

[10] = targeted lipidomic analysis, versus vehicle-treated controls, FIGS. 5A and 16

With `Cc1[nH]n(-c2ccc(OC(F)(F)F)cc2)c(=O)c1C1(C(F)(F)F)C(=O)N(c2ccccc2)C2=C1C(=O)CC(C)(C)C2` (centres unmarked) [ELOVL6i] as the compound, how does the “effect on G12V KRAS protein level” value [1] read?
The value was “concentration-dependent effect”.

What about the “lowering of mCherry-G12V KRAS” value [2] of the same compound?
The value was “dose-dependent effects”.

And the “mCherry-G12V KRAS co-localization with cell membrane” value [3]?
The value was “Significant reductions”.

And the “mCherry-G12V KRAS fluorescence intensity” value [3]?
The value was “Significant reductions”.

What about the “GTP-bound KRAS” value [4] of the same compound?
The value was “significantly reduced”.

And the “cellular GTP-bound KRAS” value [5]?
Its value is “consistently reduced”.

What about the “ERK phosphorylation (immunohistochemistry)” value ([6]; SW403 tumor samples, FIG. 4E) of the same compound?
Its value is “significant decrease”.

What about the “expression of mutant KRAS (immunohistochemistry)” value ([6]; SW403 tumor samples, FIG. 4E) of the same compound?
The value was “significant decrease”.

And the “ki-67 proliferation marker (immunohistochemistry)” value ([6]; SW403 tumor samples, FIG. 4E)?
The value was “significant decrease”.

What about the “ERK phosphorylation in tumor samples” value ([6]; SW403 tumors, western blot and flow cytometry after 3-day, 1-week, 3-week treatment, FIGS. 13B-13D) of the same compound?
Its value is “time-dependent reduction”.

And the survival ([6]; SW403 xenograft, oral, 300 mg/kg, FIG. 4D)?
Its survival is “prolonged survival”.

What about the tumor growth rate ([6]; SW403 xenograft, oral, 300 mg/kg, FIGS. 4B-4D) of the same compound?
The tumor growth rate was “significant reduction”.

And the tolerability ([6]; mice bearing SW403 xenograft, oral, 300 mg/kg, FIG. 13A)?
The tolerability was “well tolerated”.

And the “sensitivity of mutant KRAS-expressing cells versus WT KRAS expressing cells” value ([7]; 7-day treatment, FIGS. 4G-4I and 14)?
Its value is “more sensitive”.

What about the “cell viability across KRAS variants” value ([7]; G12V, G12D, G13D, G12C, G12R, Q61X, A146T cell lines, 7-day treatment, FIG. 4F) of the same compound?
The value was “impacted cell viability across all KRAS variants tested”.

What about the “sensitivity of pancreatic cancer cell lines (antiproliferative effect)” value ([7]; panel of human KRAS mutant cell lines) of the same compound?
Its value is “especially sensitive”.

And the “long-chain PUFA” value ([8]; ELOVL6i treated cells)?
The value was “increases”.

And the “sphingolipids, including sphingomyelin (SM) and Hexosyl-Ceramide (HexCer)” value ([8]; shotgun lipidomic analysis, FIG. 5C)?
Its value is “significant reduction”.

And the “levels of PtdSer” value ([8]; shotgun lipidomic analysis, FIG. 5E)?
The value was “significantly altered”.

What about the “glycerolipid abundance, including diacylglycerol (DAG) and triacylglycerol (TAG)” value ([8]; shotgun lipidomic analysis, FIGS. 5B and 18A) of the same compound?
Its value is “Notable increases”.

What about the levels of oleate [8, 10] of the same compound?
The levels of oleate was “significant reduction”.

And the levels of stearate [8, 10]?
Its levels of stearate is “significant reduction”.

And the “cell viability with exogenous oleic acid or stearic acid supplementation during ELOVL6i treatment” value [9]?
Its value is “enhanced cell viability”.

— patent US20260022380A1, “GENETIC MODULATORS OF KRAS PROTEIN EXPRESSION AND THEIR USES” (Northwestern University, priority 2024, published 2026)
